Each block holds one molecule with its values, some of them ahead of it.
What was measured:
[1] = molecular target: T1, Alpha-1A adrenergic receptor (Homo sapiens, UniProt P35348); format: functional, cell-based
T1 sequence (P35348 whole entry): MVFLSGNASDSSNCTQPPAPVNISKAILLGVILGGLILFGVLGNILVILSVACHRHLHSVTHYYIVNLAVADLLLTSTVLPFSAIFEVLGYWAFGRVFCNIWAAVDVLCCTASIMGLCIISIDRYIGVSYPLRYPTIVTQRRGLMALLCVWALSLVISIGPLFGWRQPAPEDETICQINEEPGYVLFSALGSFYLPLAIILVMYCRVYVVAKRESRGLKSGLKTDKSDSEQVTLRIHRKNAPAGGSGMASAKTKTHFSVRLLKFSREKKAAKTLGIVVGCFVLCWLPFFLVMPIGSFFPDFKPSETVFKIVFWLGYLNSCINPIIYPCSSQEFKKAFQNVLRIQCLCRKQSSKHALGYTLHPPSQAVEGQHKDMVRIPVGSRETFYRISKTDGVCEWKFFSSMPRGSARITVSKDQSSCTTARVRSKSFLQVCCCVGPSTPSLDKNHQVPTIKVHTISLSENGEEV

[2] = molecular target: Synaptic vesicular amine transporter (Rattus norvegicus, UniProt Q01827); format: functional
[3] = molecular target: T2, Muscarinic acetylcholine receptor M1 (Homo sapiens, UniProt P11229)
T2 sequence (P11229 whole entry): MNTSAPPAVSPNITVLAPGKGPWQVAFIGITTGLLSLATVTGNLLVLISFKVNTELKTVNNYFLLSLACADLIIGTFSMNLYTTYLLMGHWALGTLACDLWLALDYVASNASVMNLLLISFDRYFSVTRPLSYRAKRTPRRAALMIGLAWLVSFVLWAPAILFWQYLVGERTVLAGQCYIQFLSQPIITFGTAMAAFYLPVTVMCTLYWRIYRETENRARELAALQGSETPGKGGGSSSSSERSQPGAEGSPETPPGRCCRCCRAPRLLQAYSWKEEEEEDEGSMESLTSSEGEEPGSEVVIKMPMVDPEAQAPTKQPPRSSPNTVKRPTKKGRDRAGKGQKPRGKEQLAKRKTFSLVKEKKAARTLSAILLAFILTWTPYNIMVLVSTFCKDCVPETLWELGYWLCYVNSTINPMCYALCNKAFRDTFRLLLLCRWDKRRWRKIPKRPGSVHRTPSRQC

[4] = molecular target: T3, Gamma-aminobutyric acid receptor subunit alpha-1/alpha-2/beta-2/gamma-2 (Homo sapiens, UniProt P14867+P47870+P18507+P47869); format: functional, cell-based
[5] = molecular target: T3, Gamma-aminobutyric acid receptor subunit alpha-1/alpha-2/beta-2/gamma-2; format: functional, cell-based; remark: listed apart in the source
[6] = molecular target: Sodium-dependent serotonin transporter (Homo sapiens, UniProt P31645)
Androgen receptor = molecular target: T4, Androgen receptor (Homo sapiens, UniProt P10275)
T4 sequence (P10275 whole entry): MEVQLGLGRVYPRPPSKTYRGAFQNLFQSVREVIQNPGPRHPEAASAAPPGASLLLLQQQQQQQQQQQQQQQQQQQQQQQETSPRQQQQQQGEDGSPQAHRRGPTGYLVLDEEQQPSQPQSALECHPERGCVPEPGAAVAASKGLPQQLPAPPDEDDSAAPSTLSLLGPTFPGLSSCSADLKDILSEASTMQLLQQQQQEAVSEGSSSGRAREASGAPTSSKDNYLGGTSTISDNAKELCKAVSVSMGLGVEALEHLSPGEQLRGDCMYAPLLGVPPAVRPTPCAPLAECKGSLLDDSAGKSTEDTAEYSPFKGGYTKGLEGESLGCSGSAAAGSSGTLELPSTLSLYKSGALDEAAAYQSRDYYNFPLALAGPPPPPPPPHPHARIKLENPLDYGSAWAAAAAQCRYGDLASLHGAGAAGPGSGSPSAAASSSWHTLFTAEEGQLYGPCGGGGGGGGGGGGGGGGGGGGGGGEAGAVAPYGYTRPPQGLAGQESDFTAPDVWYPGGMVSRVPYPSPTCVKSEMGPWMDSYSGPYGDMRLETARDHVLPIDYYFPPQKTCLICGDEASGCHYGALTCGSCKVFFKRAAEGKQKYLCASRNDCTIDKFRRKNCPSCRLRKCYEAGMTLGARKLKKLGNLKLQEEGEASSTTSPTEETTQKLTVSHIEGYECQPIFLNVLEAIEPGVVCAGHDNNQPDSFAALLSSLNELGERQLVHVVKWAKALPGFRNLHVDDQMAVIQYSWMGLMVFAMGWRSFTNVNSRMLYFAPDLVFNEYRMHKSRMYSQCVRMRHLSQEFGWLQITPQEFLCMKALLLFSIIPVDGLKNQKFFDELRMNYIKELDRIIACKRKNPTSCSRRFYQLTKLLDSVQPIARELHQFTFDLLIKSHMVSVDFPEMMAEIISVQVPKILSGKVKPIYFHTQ
Note: assay procedure not described here.

T3 sequence (P14867 whole entry): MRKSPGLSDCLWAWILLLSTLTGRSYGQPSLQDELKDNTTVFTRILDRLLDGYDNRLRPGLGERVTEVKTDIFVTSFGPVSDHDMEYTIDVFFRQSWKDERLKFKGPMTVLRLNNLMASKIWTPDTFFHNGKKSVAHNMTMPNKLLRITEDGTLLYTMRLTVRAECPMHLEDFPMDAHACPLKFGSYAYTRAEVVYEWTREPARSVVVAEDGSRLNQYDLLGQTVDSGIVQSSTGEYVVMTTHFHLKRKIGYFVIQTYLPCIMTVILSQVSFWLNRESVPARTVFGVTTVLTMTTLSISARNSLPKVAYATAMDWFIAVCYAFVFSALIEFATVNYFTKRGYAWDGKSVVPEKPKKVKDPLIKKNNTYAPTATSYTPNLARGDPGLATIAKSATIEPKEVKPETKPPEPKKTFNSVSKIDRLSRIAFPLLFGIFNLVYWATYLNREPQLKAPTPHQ
T3 sequence (P47870 whole entry): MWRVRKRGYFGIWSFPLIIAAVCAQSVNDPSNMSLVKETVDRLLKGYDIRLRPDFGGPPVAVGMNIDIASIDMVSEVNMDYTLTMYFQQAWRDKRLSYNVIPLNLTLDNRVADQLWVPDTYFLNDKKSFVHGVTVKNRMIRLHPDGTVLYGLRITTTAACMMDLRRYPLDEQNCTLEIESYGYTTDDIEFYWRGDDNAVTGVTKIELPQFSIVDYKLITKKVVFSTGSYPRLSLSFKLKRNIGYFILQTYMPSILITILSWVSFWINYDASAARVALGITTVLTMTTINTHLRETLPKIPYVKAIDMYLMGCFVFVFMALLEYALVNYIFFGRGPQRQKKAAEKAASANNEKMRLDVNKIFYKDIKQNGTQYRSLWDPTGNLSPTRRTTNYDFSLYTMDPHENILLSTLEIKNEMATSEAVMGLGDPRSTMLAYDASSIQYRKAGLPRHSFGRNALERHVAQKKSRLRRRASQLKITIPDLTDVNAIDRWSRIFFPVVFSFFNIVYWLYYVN
T3 sequence (P18507 whole entry): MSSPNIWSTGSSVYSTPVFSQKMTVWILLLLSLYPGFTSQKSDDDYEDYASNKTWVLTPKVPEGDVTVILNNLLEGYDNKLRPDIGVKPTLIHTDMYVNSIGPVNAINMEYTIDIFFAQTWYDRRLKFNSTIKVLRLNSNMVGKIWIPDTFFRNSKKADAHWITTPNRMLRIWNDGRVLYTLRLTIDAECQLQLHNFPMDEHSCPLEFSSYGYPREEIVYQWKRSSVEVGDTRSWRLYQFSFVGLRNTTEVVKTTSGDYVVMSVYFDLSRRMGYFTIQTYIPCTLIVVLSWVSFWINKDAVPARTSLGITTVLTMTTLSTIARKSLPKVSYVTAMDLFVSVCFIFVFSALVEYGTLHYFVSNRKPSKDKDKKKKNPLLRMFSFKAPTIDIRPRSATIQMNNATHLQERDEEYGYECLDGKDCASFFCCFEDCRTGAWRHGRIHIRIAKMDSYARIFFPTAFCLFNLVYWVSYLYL
T3 sequence (P47869 whole entry): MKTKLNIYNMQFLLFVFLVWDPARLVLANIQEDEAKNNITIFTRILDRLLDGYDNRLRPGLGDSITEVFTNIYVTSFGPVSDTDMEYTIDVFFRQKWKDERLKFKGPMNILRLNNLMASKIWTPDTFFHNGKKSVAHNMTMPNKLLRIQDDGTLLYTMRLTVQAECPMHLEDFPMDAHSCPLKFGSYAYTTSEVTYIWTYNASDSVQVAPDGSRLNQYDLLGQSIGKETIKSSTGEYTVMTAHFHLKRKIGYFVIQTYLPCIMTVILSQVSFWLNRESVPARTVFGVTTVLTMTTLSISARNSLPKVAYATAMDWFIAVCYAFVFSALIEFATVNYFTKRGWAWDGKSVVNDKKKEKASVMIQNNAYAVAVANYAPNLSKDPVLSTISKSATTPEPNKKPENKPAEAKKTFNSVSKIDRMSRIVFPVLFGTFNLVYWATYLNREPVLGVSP
Chain of Sodium-dependent serotonin transporter (P31645 whole entry): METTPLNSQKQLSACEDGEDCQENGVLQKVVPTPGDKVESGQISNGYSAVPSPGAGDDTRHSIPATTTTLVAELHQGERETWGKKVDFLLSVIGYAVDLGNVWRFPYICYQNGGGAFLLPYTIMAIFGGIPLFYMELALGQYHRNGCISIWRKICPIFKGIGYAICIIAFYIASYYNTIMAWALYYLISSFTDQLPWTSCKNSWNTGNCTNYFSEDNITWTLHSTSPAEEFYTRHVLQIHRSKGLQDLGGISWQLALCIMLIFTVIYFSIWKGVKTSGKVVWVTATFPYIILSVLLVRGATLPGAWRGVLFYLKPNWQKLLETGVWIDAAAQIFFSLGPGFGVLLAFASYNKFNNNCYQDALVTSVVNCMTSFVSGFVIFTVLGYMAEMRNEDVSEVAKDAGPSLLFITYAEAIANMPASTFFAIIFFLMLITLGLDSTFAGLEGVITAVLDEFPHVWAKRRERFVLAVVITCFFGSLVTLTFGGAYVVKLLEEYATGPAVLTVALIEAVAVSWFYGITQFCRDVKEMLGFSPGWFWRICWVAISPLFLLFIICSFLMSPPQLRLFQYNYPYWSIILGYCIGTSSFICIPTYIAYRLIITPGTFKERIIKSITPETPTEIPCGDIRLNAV
Chain of Synaptic vesicular amine transporter (Q01827 whole entry): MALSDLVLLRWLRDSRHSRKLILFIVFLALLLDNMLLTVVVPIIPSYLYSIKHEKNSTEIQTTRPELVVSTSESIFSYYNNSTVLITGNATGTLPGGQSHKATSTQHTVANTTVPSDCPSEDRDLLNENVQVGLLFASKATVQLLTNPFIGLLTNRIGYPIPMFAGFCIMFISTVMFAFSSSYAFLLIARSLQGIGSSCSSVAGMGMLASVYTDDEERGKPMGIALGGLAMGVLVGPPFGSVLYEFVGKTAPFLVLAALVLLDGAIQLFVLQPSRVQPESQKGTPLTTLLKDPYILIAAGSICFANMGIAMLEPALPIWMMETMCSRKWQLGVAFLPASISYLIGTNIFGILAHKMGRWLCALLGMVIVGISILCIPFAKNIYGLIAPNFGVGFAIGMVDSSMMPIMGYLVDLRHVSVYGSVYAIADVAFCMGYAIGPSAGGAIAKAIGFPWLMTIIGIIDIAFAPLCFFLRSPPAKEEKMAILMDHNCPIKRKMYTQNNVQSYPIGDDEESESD

Molecule: NCCCC(O)(P(=O)(O)O)P(=O)(O)O [ALENDRONIC ACID]
AC50 [1]: > 30 µM

Molecule: COc1ccc(C(CN(C)C)C2(O)CCCCC2)cc1 (configuration not stated) [VENLAFAXINE]
AC50 [2]: > 30 µM

AC50 [3]: > 30 µM
AC50 [4]: > 30 µM
AC50 [5]: > 30 µM
AC50 [6]: > 30 µM
AC50 (Androgen receptor): > 30 µM
Molecule: COLISTIN
